Test results as given in PubChem BioAssay (NCI).
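Briefly, cells in 96-well plates were exposed to five compound concentrations for 48 h, and endpoints were estimated by linear interpolation. GI50 marks 50% less growth. At the TGI there is no net growth.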

Key:
Test in all cases: NCI anticancer screen, dose series, 48 h; in the data active = GI50 below about 0.43 µM; inactive = the rest
SK-OV-3 ovarian = tested on: SK-OV-3 ovarian
COLO 205 colon = tested on: COLO 205 colon
786-0 renal = tested on: 786-0 renal
UO-31 renal = tested on: UO-31 renal
SNB-75 CNS = tested on: SNB-75 CNS
A549 NSCLC = tested on: A549 NSCLC
PC-3 prostate = tested on: PC-3 prostate
NCI-H23 lung = tested on: NCI-H23 lung
OVCAR-5 ovarian = tested on: OVCAR-5 ovarian
IGROV1 ovarian = tested on: IGROV1 ovarian
HT29 colon = tested on: HT29 colon
BT-549 breast = tested on: BT-549 breast
SR leukemia = tested on: SR leukemia
MOLT-4 leukemia = tested on: MOLT-4 leukemia
CCRF-CEM leukemia = tested on: CCRF-CEM leukemia
OVCAR-3 ovarian = tested on: OVCAR-3 ovarian
UACC-62 melanoma = tested on: UACC-62 melanoma
HOP-62 NSCLC = tested on: HOP-62 NSCLC
MDA-MB-231 breast = tested on: MDA-MB-231 breast
NCI-H522 lung = tested on: NCI-H522 lung
TK-10 renal = tested on: TK-10 renal
SW-620 colon = tested on: SW-620 colon
SK-MEL-28 melanoma = tested on: SK-MEL-28 melanoma
SNB-19 CNS = tested on: SNB-19 CNS
SF-539 CNS = tested on: SF-539 CNS
K-562 leukemia = tested on: K-562 leukemia
U251 CNS = tested on: U251 CNS
ACHN renal = tested on: ACHN renal
HCC-2998 colon = tested on: HCC-2998 colon
RPMI-8226 leukemia = tested on: RPMI-8226 leukemia
MDA-MB-435 = tested on: MDA-MB-435
DU-145 prostate = tested on: DU-145 prostate
SF-295 CNS = tested on: SF-295 CNS
NCI/ADR-RES ovarian = tested on: NCI/ADR-RES ovarian
SN12C renal = tested on: SN12C renal
NCI-H460 lung = tested on: NCI-H460 lung
OVCAR-4 ovarian = tested on: OVCAR-4 ovarian
HCT-15 colon = tested on: HCT-15 colon
HL-60(TB) leukemia = tested on: HL-60(TB) leukemia
UACC-257 melanoma = tested on: UACC-257 melanoma
T-47D breast = tested on: T-47D breast
MDA-MB-468 breast = tested on: MDA-MB-468 breast
HS 578T breast = tested on: HS 578T breast
EKVX NSCLC = tested on: EKVX NSCLC
HOP-92 NSCLC = tested on: HOP-92 NSCLC
OVCAR-8 ovarian = tested on: OVCAR-8 ovarian
M14 melanoma = tested on: M14 melanoma
HCT-116 colon = tested on: HCT-116 colon
A498 renal = tested on: A498 renal
RXF 393 renal = tested on: RXF 393 renal
MCF7 breast = tested on: MCF7 breast
MALME-3M melanoma = tested on: MALME-3M melanoma
SF-268 CNS = tested on: SF-268 CNS
NCI-H226 lung = tested on: NCI-H226 lung
SK-MEL-2 melanoma = tested on: SK-MEL-2 melanoma
CAKI-1 renal = tested on: CAKI-1 renal
LOX IMVI melanoma = tested on: LOX IMVI melanoma
KM12 colon = tested on: KM12 colon
SK-MEL-5 melanoma = tested on: SK-MEL-5 melanoma

C/C(=N\N=C\c1cc([N+](=O)[O-])ccc1Cl)c1ccc2c(c1)Nc1ccccc1S2
inactive: GI50 (SK-OV-3 ovarian) 14.9 µM | GI50 (COLO 205 colon) 18.3 µM | GI50 (786-0 renal) 12.4 µM | GI50 (UO-31 renal) 11.2 µM | GI50 (SNB-75 CNS) 12.6 µM | GI50 (A549 NSCLC) 7.56 µM | GI50 (PC-3 prostate) 38.4 µM | GI50 (NCI-H23 lung) 16.3 µM | GI50 (OVCAR-5 ovarian) 28.4 µM | GI50 (IGROV1 ovarian) 23.6 µM | GI50 (HT29 colon) 26 µM | GI50 (BT-549 breast) 20.7 µM | GI50 (SR leukemia) 13.5 µM | GI50 (MOLT-4 leukemia) 20.4 µM | GI50 (CCRF-CEM leukemia) 11.4 µM | GI50 (OVCAR-3 ovarian) 11.3 µM | GI50 (UACC-62 melanoma) 29 µM | GI50 (HOP-62 NSCLC) 16.6 µM | GI50 (MDA-MB-231 breast) 21.1 µM | GI50 (NCI-H522 lung) 12.2 µM | GI50 (TK-10 renal) 11.4 µM | GI50 (SW-620 colon) 9.55 µM | GI50 (SK-MEL-28 melanoma) > 100 µM | GI50 (SNB-19 CNS) 23.8 µM | GI50 (SF-539 CNS) 16.9 µM | GI50 (K-562 leukemia) 16.8 µM | GI50 (U251 CNS) 8.36 µM | GI50 (ACHN renal) 2.87 µM | GI50 (HCC-2998 colon) 52.2 µM | GI50 (RPMI-8226 leukemia) 20.6 µM | GI50 (MDA-MB-435) 22.9 µM | GI50 (DU-145 prostate) 34.4 µM | GI50 (SF-295 CNS) 13.5 µM | GI50 (NCI/ADR-RES ovarian) 17.9 µM | GI50 (SN12C renal) 6.86 µM | GI50 (NCI-H460 lung) 6.28 µM | GI50 (OVCAR-4 ovarian) 3.12 µM | GI50 (HCT-15 colon) 19.2 µM | GI50 (HL-60(TB) leukemia) 24.2 µM | GI50 (UACC-257 melanoma) 23.6 µM | GI50 (T-47D breast) 4.3 µM | GI50 (MDA-MB-468 breast) 1.83 µM | GI50 (HS 578T breast) 15 µM | GI50 (EKVX NSCLC) 19.3 µM | GI50 (HOP-92 NSCLC) 16.1 µM | GI50 (OVCAR-8 ovarian) 12.2 µM | GI50 (M14 melanoma) 51.7 µM | GI50 (HCT-116 colon) 3.36 µM | GI50 (A498 renal) 12.6 µM | GI50 (RXF 393 renal) 16.6 µM | GI50 (MCF7 breast) 21.5 µM | GI50 (MALME-3M melanoma) 19.1 µM | GI50 (SF-268 CNS) 26.3 µM | GI50 (NCI-H226 lung) 17.7 µM | GI50 (SK-MEL-2 melanoma) 20.8 µM | GI50 (CAKI-1 renal) 12.5 µM | GI50 (LOX IMVI melanoma) 31.3 µM | GI50 (KM12 colon) 35.8 µM | GI50 (SK-MEL-5 melanoma) 24.9 µM
25.4 µM: TGI (UO-31 renal)
63 µM: TGI (MDA-MB-231 breast)
39.8 µM: TGI (HOP-62 NSCLC)
79.8 µM: TGI (EKVX NSCLC)
15.3 µM: TGI (HCT-116 colon)
27.6 µM: TGI (786-0 renal) | TGI (A498 renal)
94.5 µM: TGI (RXF 393 renal)
58.3 µM: TGI (HS 578T breast)
45.1 µM: TGI (SK-OV-3 ovarian)
18.6 µM: TGI (MDA-MB-468 breast)
> 100 µM: TGI (COLO 205 colon) | TGI (PC-3 prostate) | TGI (OVCAR-5 ovarian) | TGI (IGROV1 ovarian) | TGI (HT29 colon) | TGI (BT-549 breast) | TGI (MOLT-4 leukemia) | TGI (CCRF-CEM leukemia) | TGI (UACC-62 melanoma) | TGI (SK-MEL-28 melanoma) | TGI (SNB-19 CNS) | TGI (K-562 leukemia) | TGI (HCC-2998 colon) | TGI (RPMI-8226 leukemia) | TGI (MDA-MB-435) | TGI (DU-145 prostate) | TGI (HCT-15 colon) | TGI (HL-60(TB) leukemia) | TGI (UACC-257 melanoma) | TGI (M14 melanoma) | TGI (MCF7 breast) | TGI (MALME-3M melanoma) | TGI (SF-268 CNS) | TGI (NCI-H226 lung) | TGI (LOX IMVI melanoma) | TGI (KM12 colon) | TGI (SK-MEL-5 melanoma)
45 µM: TGI (NCI-H23 lung)
31.8 µM: TGI (A549 NSCLC)
27.7 µM: TGI (CAKI-1 renal)
8.59 µM: TGI (ACHN renal)
89.5 µM: TGI (HOP-92 NSCLC)
21.4 µM: TGI (NCI-H460 lung)
65.5 µM: TGI (NCI/ADR-RES ovarian)
83.1 µM: TGI (SK-MEL-2 melanoma)
24.5 µM: TGI (SW-620 colon)
11.8 µM: TGI (OVCAR-4 ovarian)
35.2 µM: TGI (SF-539 CNS)
28.5 µM: TGI (SN12C renal)
23.9 µM: TGI (U251 CNS)
81 µM: TGI (SR leukemia)
41 µM: TGI (NCI-H522 lung)
35.8 µM: TGI (OVCAR-8 ovarian)
35.1 µM: TGI (SF-295 CNS)
25.8 µM: TGI (T-47D breast)
24 µM: TGI (OVCAR-3 ovarian)
33.4 µM: TGI (SNB-75 CNS)
24.9 µM: TGI (TK-10 renal)
